From PubChem BioAssay AID1963982 (Molecular Pharmacology Branch, DTP, NCI, 2024)

Tested on: 313798-341-R-J2-PDC spheroids, viability
Assay: Anticancer human tumor 313798-341-R-J2-PDC patient-derived cervical squamous cell carcinoma cell line growth inhibition [PI3K]
Conditions: spheroids with HUVEC and MSC; for IC50: curve of first compound; for viability, T/C: stronger effect = lower value; active = viability on the fitted dose curve at most 10% of control; inactive = the rest
Method in brief: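 Stroma-containing spheroids: tumor line, pooled-donor HUVEC, hMSC. Treatments: targeted agents with PI3K inhibitors. Dosing: clinically relevant, half-log spacing, 10 microM ceiling without known Cmax. Read-out: cell viability.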

[1] = second compound 0.0316 µM, first compound 0.0316 µM
[2] = second compound 0.0316 µM, first compound 0.1 µM
[3] = second compound 0.0316 µM, first compound 0.316 µM
[4] = second compound 0.0316 µM, first compound 1 µM
[5] = second compound 0.0316 µM, first compound 3.16 µM
[6] = second compound 0.0316 µM, first compound 10 µM
[7] = second compound 0.1 µM, first compound 0.0316 µM
[8] = second compound 0.1 µM, first compound 0.1 µM
[9] = second compound 0.1 µM, first compound 0.316 µM
[10] = second compound 0.1 µM, first compound 1 µM
[11] = second compound 0.1 µM, first compound 3.16 µM
[12] = second compound 0.1 µM, first compound 10 µM
[13] = second compound 0.316 µM, first compound 0.0316 µM
[14] = second compound 0.316 µM, first compound 0.1 µM
[15] = second compound 0.316 µM, first compound 0.316 µM
[16] = second compound 0.316 µM, first compound 1 µM
[17] = second compound 0.316 µM, first compound 3.16 µM
[18] = second compound 0.316 µM, first compound 10 µM
[19] = second compound 1 µM, first compound 0.0316 µM
[20] = second compound 1 µM, first compound 0.1 µM
[21] = second compound 1 µM, first compound 0.316 µM
[22] = second compound 1 µM, first compound 1 µM
[23] = second compound 1 µM, first compound 3.16 µM
[24] = second compound 1 µM, first compound 10 µM
[25] = second compound 3.16 µM, first compound 0.0316 µM
[26] = second compound 3.16 µM, first compound 0.1 µM
[27] = second compound 3.16 µM, first compound 0.316 µM
[28] = second compound 3.16 µM, first compound 1 µM
[29] = second compound 3.16 µM, first compound 3.16 µM
[30] = second compound 3.16 µM, first compound 10 µM
[31] = second compound 10 µM, first compound 0.0316 µM
[32] = second compound 10 µM, first compound 0.1 µM
[33] = second compound 10 µM, first compound 0.316 µM
[34] = second compound 10 µM, first compound 1 µM
[35] = second compound 10 µM, first compound 3.16 µM
[36] = second compound 10 µM, first compound 10 µM
[37] = second compound 0.0316 µM, first compound 0.00316 µM
[38] = second compound 0.0316 µM, first compound 0.01 µM
[39] = second compound 0.1 µM, first compound 0.00316 µM
[40] = second compound 0.1 µM, first compound 0.01 µM
[41] = second compound 0.316 µM, first compound 0.00316 µM
[42] = second compound 0.316 µM, first compound 0.01 µM
[43] = second compound 1 µM, first compound 0.00316 µM
[44] = second compound 1 µM, first compound 0.01 µM
[45] = second compound 3.16 µM, first compound 0.00316 µM
[46] = second compound 3.16 µM, first compound 0.01 µM
[47] = second compound 10 µM, first compound 0.00316 µM
[48] = second compound 10 µM, first compound 0.01 µM
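Note: spheroids exposed to compounds for seven days.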
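Throughout, for viability, T/C: 100% = DMSO vehicle control viability.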

CC(C)NCC(C(=O)N1CCN(c2ncnc3c2C(C)CC3O)CC1)c1ccc(Cl)cc1 (stereo not drawn) + Cc1nc(NC(=O)N2CCCC2C(N)=O)sc1-c1ccnc(C(C)(C)C(F)(F)F)c1
inactive: viability, T/C [1] 118% | viability, T/C [2] 100% | viability, T/C [3] 88.7% | viability, T/C [4] 65.7% | viability, T/C [5] 37.8% | viability, T/C [6] 32.4% | viability, T/C [7] 107% | viability, T/C [8] 102% | viability, T/C [9] 87.8% | viability, T/C [10] 72.4% | viability, T/C [11] 45.3% | viability, T/C [12] 33.6% | viability, T/C [13] 101% | viability, T/C [14] 93% | viability, T/C [15] 94% | viability, T/C [16] 58.5% | viability, T/C [17] 39.9% | viability, T/C [18] 32.7% | viability, T/C [19] 84.9% | viability, T/C [20] 97.4% | viability, T/C [21] 86.2% | viability, T/C [22] 55.3% | viability, T/C [23] 39.2% | viability, T/C [24] 30.3% | viability, T/C [25] 65.9% | viability, T/C [26] 58.6% | viability, T/C [27] 49.4% | viability, T/C [28] 45.8% | viability, T/C [29] 32.7% | viability, T/C [30] 30.2% | viability, T/C [31] 34% | viability, T/C [32] 33.5% | viability, T/C [33] 34.6% | viability, T/C [34] 34.3% | viability, T/C [35] 27.8% | viability, T/C [36] 22.3%
345 nM: IC50 (second compound 3.16 µM)
1420 nM: IC50 (second compound 1 µM)
1620 nM: IC50 (second compound 0.316 µM)
2770 nM: IC50 (second compound 0.1 µM)
2080 nM: IC50 (second compound 0.0316 µM)
< 31.6 nM: IC50 (second compound 10 µM)

CCN1CCN(Cc2ccc(Nc3ncc(F)c(-c4cc(F)c5nc(C)n(C(C)C)c5c4)n3)nc2)CC1 + Cc1nc(NC(=O)N2CCCC2C(N)=O)sc1-c1ccnc(C(C)(C)C(F)(F)F)c1
> 1000 nM: IC50 (second compound 0.0316 µM) | IC50 (second compound 0.1 µM) | IC50 (second compound 0.316 µM) | IC50 (second compound 1 µM) | IC50 (second compound 3.16 µM)
< 3.16 nM: IC50 (second compound 10 µM)
inactive: viability, T/C [37] 106% | viability, T/C [38] 104% | viability, T/C [1] 109% | viability, T/C [2] 108% | viability, T/C [3] 131% | viability, T/C [4] 129% | viability, T/C [39] 100% | viability, T/C [40] 104% | viability, T/C [7] 111% | viability, T/C [8] 104% | viability, T/C [9] 126% | viability, T/C [10] 131% | viability, T/C [41] 96.9% | viability, T/C [42] 102% | viability, T/C [13] 112% | viability, T/C [14] 112% | viability, T/C [15] 114% | viability, T/C [16] 114% | viability, T/C [43] 93.2% | viability, T/C [44] 102% | viability, T/C [19] 94.2% | viability, T/C [20] 110% | viability, T/C [21] 88.2% | viability, T/C [22] 80.9% | viability, T/C [45] 63.6% | viability, T/C [46] 62.6% | viability, T/C [25] 56.2% | viability, T/C [26] 59.9% | viability, T/C [27] 58.4% | viability, T/C [28] 69% | viability, T/C [47] 37% | viability, T/C [48] 37.4% | viability, T/C [31] 34.3% | viability, T/C [32] 35.8% | viability, T/C [33] 41.4% | viability, T/C [34] 45.8%

C[C@@H](NC(=O)c1ncnc(N)c1Cl)c1ncc(C(=O)Nc2cc(C(F)(F)F)c(Cl)cn2)s1 + Cc1nc(NC(=O)N2CCCC2C(N)=O)sc1-c1ccnc(C(C)(C)C(F)(F)F)c1
> 10000 nM: IC50 (second compound 0.0316 µM) | IC50 (second compound 0.1 µM) | IC50 (second compound 0.316 µM) | IC50 (second compound 1 µM) | IC50 (second compound 3.16 µM)
inactive: viability, T/C [1] 106% | viability, T/C [2] 93.3% | viability, T/C [3] 103% | viability, T/C [4] 101% | viability, T/C [5] 108% | viability, T/C [6] 107% | viability, T/C [7] 104% | viability, T/C [8] 112% | viability, T/C [9] 92.8% | viability, T/C [10] 111% | viability, T/C [11] 115% | viability, T/C [12] 113% | viability, T/C [13] 111% | viability, T/C [14] 121% | viability, T/C [15] 104% | viability, T/C [16] 105% | viability, T/C [17] 110% | viability, T/C [18] 109% | viability, T/C [19] 104% | viability, T/C [20] 92% | viability, T/C [21] 89.7% | viability, T/C [22] 101% | viability, T/C [23] 98.6% | viability, T/C [24] 88% | viability, T/C [25] 63.7% | viability, T/C [26] 60% | viability, T/C [27] 69.2% | viability, T/C [28] 71.1% | viability, T/C [29] 64.9% | viability, T/C [30] 58.4% | viability, T/C [31] 31.8% | viability, T/C [32] 35.1% | viability, T/C [33] 38.2% | viability, T/C [34] 33.4% | viability, T/C [35] 39.6% | viability, T/C [36] 39.5%
< 31.6 nM: IC50 (second compound 10 µM)

Cn1ncnc1[C@H]1c2n[nH]c(=O)c3cc(F)cc(c23)N[C@@H]1c1ccc(F)cc1 + Cc1nc(NC(=O)N2CCCC2C(N)=O)sc1-c1ccnc(C(C)(C)C(F)(F)F)c1
< 0.316 nM: IC50 (second compound 10 µM)
> 100 nM: IC50 (second compound 0.0316 µM) | IC50 (second compound 0.1 µM) | IC50 (second compound 0.316 µM) | IC50 (second compound 1 µM) | IC50 (second compound 3.16 µM)
inactive: viability, T/C (second compound 0.0316 µM, first compound 0.000316 µM) 112% | viability, T/C (second compound 0.0316 µM, first compound 0.001 µM) 90% | viability, T/C [37] 97.6% | viability, T/C [38] 96.1% | viability, T/C [1] 93.9% | viability, T/C [2] 95.7% | viability, T/C (second compound 0.1 µM, first compound 0.000316 µM) 98.7% | viability, T/C (second compound 0.1 µM, first compound 0.001 µM) 103% | viability, T/C [39] 98.2% | viability, T/C [40] 97.8% | viability, T/C [7] 92.6% | viability, T/C [8] 87% | viability, T/C (second compound 0.316 µM, first compound 0.000316 µM) 97.7% | viability, T/C (second compound 0.316 µM, first compound 0.001 µM) 100% | viability, T/C [41] 110% | viability, T/C [42] 90.7% | viability, T/C [13] 102% | viability, T/C [14] 80.8% | viability, T/C (second compound 1 µM, first compound 0.000316 µM) 92.2% | viability, T/C (second compound 1 µM, first compound 0.001 µM) 86.3% | viability, T/C [43] 82.9% | viability, T/C [44] 72.5% | viability, T/C [19] 79.1% | viability, T/C [20] 71.5% | viability, T/C (second compound 3.16 µM, first compound 0.000316 µM) 59.6% | viability, T/C (second compound 3.16 µM, first compound 0.001 µM) 61% | viability, T/C [45] 59% | viability, T/C [46] 54.9% | viability, T/C [25] 59.6% | viability, T/C [26] 49.4% | viability, T/C (second compound 10 µM, first compound 0.000316 µM) 35.9% | viability, T/C (second compound 10 µM, first compound 0.001 µM) 36.8% | viability, T/C [47] 38.2% | viability, T/C [48] 34.2% | viability, T/C [31] 33.2% | viability, T/C [32] 28.3%
